Data as given in paper PMC7719179, “Small molecule inhibition of Dynamin-dependent endocytosis targets multiple niche signals and impairs leukemia stem cells” (Nature Communications, 2020).
Several values for one entry are separate records, joined by “and”; a condition that tells them apart may be missing. Equal entries are not always repeated. Where two headings read alike, the source gives them in different places.

Assays:
[1] = test system: AML01-307 and AML18 patient-derived xenografts; assay: Xenograft models of human AML (AML01-307, AML18): leukemic burden in blood, bone marrow, spleen; spleen weight; format: in vivo
Method: Patient-derived xenograft models were established as previously described[97],[98]. All experiments were pre-approved by the Human Research Ethics Committee of the University of New South Wales (UNSW), the UNSW Animal Care and Ethics Committee, the Alfred Health Human Ethics Committee and the AMREP Animal Ethics Committee. For transplantation assays, 10^6 splenocytes harvested from successfully engrafted primary human ETP-ALL or T-ALL xenografts were injected into nonobese diabetic/severe combined immunodeficient (NOD.Cg-Prkdc^scid, also termed NOD/SCID) or NOD/SCID/Il2rg^tm1wjl/SzJ (NSG) mice[99]. Moreover, 1.5 × 10^6 cells splenocytes harvested from successfully engrafted patient-derived AML xenografts were injected into nonobese diabetic/severe immunodeficient (NOD.Cg-Rag1^tm1MomIl2rg^tm1wjl/SzJ, also termed NRG) mice expressing human IL-3, human GM-CSF and human SCF from the SGM3 triple transgene (NRGS)[100]. Engraftment into recipients was monitored by FACS analysis of peripheral blood as previously described. […] Both males and females were used. […] Kaplan–Meier survival and statistical analyses were performed using GraphPad Prism. 6.0 software (GraphPad Software, Inc.).
Spleen and sternum from recipients were collected, incubated at least 24 h in 3.7% neutral buffered formalin (pH 7.4), embedded in paraffin and sectioned at 8 μm onto Superforst-Plus slides. Samples were incubated with an anti-human CD45 antibody (Dako, #M0701) in Dako Autostainer Plus solution, then incubated with a sheep anti-mouse IgG conjugated to HRP and processed as per standard protocols using 3,3’ Diaminobenzidine staining (#ab64238, Abcam) for all immunoblots, as previously described. Samples were imaged and annotated using an Aperio ScanScope and software system (Leica Biosystems). […]

hematopoietic stem cells = assay: Competitive transplant with bone marrow cells from treated WT mice (HSC activity); format: in vivo
Method: induction-like therapy (VXL) or combination therapy was administered. Mean ± SEM, 2-way ANOVA […]
murine B (CD19+ B220+), T (CD3+) and Myeloid (Gr-1 + CD11b+ granulocytes and monocytes) cells (c ), as well as Lineage-negative Kit-positive (Lin -Kit+, LK) progenitors, different populations of multipotent progenitors (MPP) and hematopoietic stem cells (HSC; d) from the bone marrow of WT […]
administered. Vehicle was used as control. e, Experimental schematic of competitive transplant […]
harvested from isogenic Cd45.1+ mice. These cells were injected into lethally -irradiated recipients, and lineage reconstitution was monitored every 4 weeks, until 20 weeks post-transplantation when BM was harvested for analysis. f, Percent of donor -derived (Cd45.2 +) cells among all peripheral blood cells at 4, 8, 12, 16 and 20 weeks post- transplant. g-h , Absolute numbers of donor-derived (Cd45.2+) lineage-committed (B, and Myeloid) cells ( g), as well as LK, MPP populations and HSCs (h ) harvested from the BM of recipients at 20 weeks post- transplant. Mean ± SEM, 2-way ANOV A with Tukey’s correction test; *P<0.05, *** P<0.001 compared to vehicle; #P<0.05, ##P<0.01, ###P<0.001 compared to VXL. ns = not statistically significant.

[2] = test system: pre-LSC self-renewal activity; assay: Fold expansion after transplantation of DN3a thymocytes from treated Lmo2^Tg mice; format: in vivo, mouse; details: recipients of DN3a thymocytes from treated Lmo2^Tg mice; individual animals
Method: Single-cell suspension of murine thymus cells were intravenously injected into sublethally irradiated (650 Rads) isogenic Ly5.1 (Cd45.1) mice. Fold expansion was calculated by dividing the absolute output number of donor-derived DN3a cells harvested at the experimental endpoint by the respective number of DN3a thymocytes injected in each recipient. Limiting dilution transplantations were performed as described, by injecting various doses (10^1 to 10^6) of thymocytes per recipient, and mice were scored positive when T-cell lineage reconstitution assessed 6 weeks after transplantation was >1%. Leukemia-propagating cell frequency was calculated by applying Poisson statistics using the ELDA: Extreme Limiting Dilution Analysis software (Walter and Eliza Hall Institute Bioinformatics, Parkville VIC, Australia)[96]. Limiting dilution transplantations were performed independently from any other transplantation assays, using thymocytes from three different Lmo2^Tg mice for each cohort. Kaplan–Meier survival and statistical analysis were performed using GraphPad Prism. 6.0 software (GraphPad Software Inc, San Diego CA, USA).

primary Lmo2^Tg T-ALL = assay: Relative viability and LC50 on primary Lmo2^Tg leukemias, 48 h; format: cell-based, mouse; design: Relative % viable cells: unit of the concentration uncertain; details: for viability at 200 µM / viability at 40 µM: Mus musculus
Method: Supplementary Figure 6 . Efficacy of Dynole 34-2 on primary Lmo2-transgenic T-ALL. a, Relative viability (%) of primary Lmo2Tg leukemias treated with increasing concentration of Dynole 34-2 for 48 hours. Viability was normalized to vehicle-treated cells with experiments performed in duplicates or triplicates. […]
concentration (LC50) of Dynole 34-2 for each primary L mo2Tg T-ALL are indicated (right panel). […]

SMILES: CCCCCCCCNC(=O)C(C#N)=Cc1cn(CCCN(C)C)c2ccccc12 [Dynole 34-2, 2-Cyano-N-octyl-3-(1-(3-dimethylaminopropyl)-1H-indol-3-yl)-acrylamide]
- Absolute numbers human CD45+ cells ([1]; AML01-307, BM): 749000 and 744000 and 1060000
- Absolute numbers human CD45+ cells ([1]; AML01-307, Spleen): 5750000 and 6290000 and 9130000
- Proportion of hCD45+ (%) in peripheral blood ([1]; AML01-307, time 1 weeks): 0.7% and 0.2% and 0.4% and 0.1%
- Proportion of hCD45+ (%) in peripheral blood ([1]; AML01-307, time 2 weeks): 0.7% and 1.2% and 3.7% and 1% and 1.9% and 0.8%
- Proportion of hCD45+ (%) in peripheral blood ([1]; AML01-307, time 3 weeks): 2.8% and 3.7% and 3.9% and 4.4% and 5.1% and 2% and 1.3%
- Proportion of hCD45+ (%) in peripheral blood ([1]; AML01-307, time 4 weeks): 5.1% and 5.66% and 9.2% and 9% and 8.38% and 2.7% and 2.566% and 4.8%
- Proportion of hCD45+ (%) in peripheral blood ([1]; AML01-307, time 5 weeks): 5.6% and 7.7% and 4.3% and 6.7% and 5.2% and 3.11% and 3.44% and 4.93%
- Proportion of hCD45+ (%) in peripheral blood ([1]; AML01-307, time 6 weeks): 17.22%
- Proportion of hCD45+ (%) in peripheral blood ([1]; AML01-307, time 8 weeks): 18.86% and 22% and 33.26% and 20.57% and 30.66% and 22.85%
- Proportion of hCD45+ (%) in peripheral blood ([1]; AML01-307, time 9 weeks): 36.6% and 52.3% and 29.5% and 40.0%
- Absolute numbers human CD45+ cells ([1]; AML18, BM): 436000 and 427000 and 629000 and 665000
- Proportion of hCD45+ (%) in peripheral blood ([1]; AML18, time 1 weeks): 0.1% and 0.2% and 0.6% and 0.5% and 0.0% and 0.4%
- Proportion of hCD45+ (%) in peripheral blood ([1]; AML18, time 4 weeks): 31.4%
- Proportion of hCD45+ (%) in peripheral blood ([1]; AML18, time 7 weeks): 30.6% and 36.7%
- Proportion of human CD45 (%) in peripheral blood ([1]; AML18 xenograft recipients): 2% and 5.6% and 2.4% and 1.6% and 4.8% and 5% and 2.26% and 2.3%
- Spleen weight ([1]; PDX AML01-307): 0.115 g and 0.137 g and 0.108 g
- Spleen weight ([1]; PDX AML18): 0.297 g and 0.287 g and 0.182 g and 0.316 g
- Absolute numbers of Cd45.2+ cells in the bone marrow: B cells (hematopoietic stem cells; Supplementary Figure 5g-h): 3150000 and 4270000 and 3310000 and 4360000
- Absolute numbers of Cd45.2+ cells in the bone marrow: LK (hematopoietic stem cells; Supplementary Figure 5g-h): 231000 and 185000 and 205000 and 163000 and 160000
- Absolute numbers of Cd45.2+ cells in the bone marrow: Myeloid cells (hematopoietic stem cells; Supplementary Figure 5g-h): 955000 and 1600000 and 1200000 and 1410000 and 1720000
- Absolute numbers of Cd45.2+ cells in the bone marrow: T cells (hematopoietic stem cells; Supplementary Figure 5g-h): 471000 and 332000 and 364000 and 374000 and 460000
- effect on HSC fitness and differentiation potential (hematopoietic stem cells; competitive transplant of bone marrow from treated mice, result in words): no detrimental effect on HSC fitness and differentiation potential
- Proportion of CD45.2+ (%) in peripheral blood (hematopoietic stem cells; week 4): 40.53% and 37.56% and 37.9% and 34.3% and 35.3%
- Proportion of CD45.2+ (%) in peripheral blood (hematopoietic stem cells; week 8): 36.97% and 46.65% and 45.78% and 44.9% and 43.63%
- Proportion of CD45.2+ (%) in peripheral blood (hematopoietic stem cells; week 12): 46.54% and 48.81% and 42.82% and 42.23% and 46.32%
- Proportion of CD45.2+ (%) in peripheral blood (hematopoietic stem cells; week 16): 42.09% and 57% and 54.04% and 43.93% and 53.26%
- Proportion of CD45.2+ (%) in peripheral blood (hematopoietic stem cells; week 20): 50.7% and 47.2% and 59.8% and 59.3% and 53.24%
- Fold expansion DN3a cells [2]: 3.5 fold and 2.36 fold and 9.11 fold and 4.77 fold and 13.12 fold and 6.34 fold and 25.03 fold and 63.73 fold and 32.46 fold
- viability at 200 µM (primary Lmo2^Tg T-ALL; read-out: Relative % viable cells, T-ALL 249, dose 0.2 mM): 94.3%
- viability at 40 µM (primary Lmo2^Tg T-ALL; read-out: Relative % viable cells, T-ALL 257, dose 0.04 mM): 92.3%
- viability at 200 µM (primary Lmo2^Tg T-ALL; read-out: Relative % viable cells, T-ALL 257, dose 0.2 mM): 76.4%
- viability at 200 µM (primary Lmo2^Tg T-ALL; read-out: Relative % viable cells, T-ALL 273, dose 0.2 mM): 96.1%
- viability at 200 µM (primary Lmo2^Tg T-ALL; read-out: Relative % viable cells, T-ALL 582, dose 0.2 mM): 97.6%
- viability at 40 µM (primary Lmo2^Tg T-ALL; read-out: Relative % viable cells, T-ALL 588, dose 0.04 mM): 114%
- Relative % viable cells (primary Lmo2^Tg T-ALL; T-ALL 249, dose 0.2 (unit uncertain)): 101.0% and 98.6%
- Relative % viable cells (primary Lmo2^Tg T-ALL; T-ALL 249, dose 1 (unit uncertain)): 97.4%
- Relative % viable cells (primary Lmo2^Tg T-ALL; T-ALL 249, dose 5 (unit uncertain)): 98.6% and 97.8%
- Relative % viable cells (primary Lmo2^Tg T-ALL; T-ALL 249, dose 25 (unit uncertain)): 14.0%
- Relative % viable cells (primary Lmo2^Tg T-ALL; T-ALL 257, dose 0.04 (unit uncertain)): 86.6%
- Relative % viable cells (primary Lmo2^Tg T-ALL; T-ALL 257, dose 0.2 (unit uncertain)): 75.9%
- Relative % viable cells (primary Lmo2^Tg T-ALL; T-ALL 257, dose 1 (unit uncertain)): 71.8%
- Relative % viable cells (primary Lmo2^Tg T-ALL; T-ALL 257, dose 5 (unit uncertain)): 49.8%
- Relative % viable cells (primary Lmo2^Tg T-ALL; T-ALL 273, dose 0.2 (unit uncertain)): 96.5% and 91.9%
- Relative % viable cells (primary Lmo2^Tg T-ALL; T-ALL 273, dose 1 (unit uncertain)): 92.9% and 93.1%
- Relative % viable cells (primary Lmo2^Tg T-ALL; T-ALL 273, dose 5 (unit uncertain)): 56.4% and 42.9%
- Relative % viable cells (primary Lmo2^Tg T-ALL; T-ALL 273, dose 10 (unit uncertain)): 20.2% and 18.0%
- Relative % viable cells (primary Lmo2^Tg T-ALL; T-ALL 273, dose 25 (unit uncertain)): 17.9%
- Relative % viable cells (primary Lmo2^Tg T-ALL; T-ALL 582, dose 0.2 (unit uncertain)): 94.2%
- Relative % viable cells (primary Lmo2^Tg T-ALL; T-ALL 582, dose 1 (unit uncertain)): 97.3%
- Relative % viable cells (primary Lmo2^Tg T-ALL; T-ALL 582, dose 5 (unit uncertain)): 75.4% and 57.9%
- Relative % viable cells (primary Lmo2^Tg T-ALL; T-ALL 582, dose 10 (unit uncertain)): 8.4% and 8.6%
- Relative % viable cells (primary Lmo2^Tg T-ALL; T-ALL 582, dose 25 (unit uncertain)): 6.2%
- Relative % viable cells (primary Lmo2^Tg T-ALL; T-ALL 588, dose 0.04 (unit uncertain)): 111.1%
- Relative % viable cells (primary Lmo2^Tg T-ALL; T-ALL 588, dose 0.2 (unit uncertain)): 107.5% and 75.9%
- Relative % viable cells (primary Lmo2^Tg T-ALL; T-ALL 588, dose 1 (unit uncertain)): 100.1%
- Relative % viable cells (primary Lmo2^Tg T-ALL; T-ALL 588, dose 5 (unit uncertain)): 75.8%
- Relative % viable cells (primary Lmo2^Tg T-ALL; T-ALL 588, dose 25 (unit uncertain)): 11.9%
- Relative % viable cells (primary Lmo2^Tg T-ALL; T-ALL 742, dose 0.2 (unit uncertain)): 53.7% and 80.5%
- Relative % viable cells (primary Lmo2^Tg T-ALL; T-ALL 742, dose 1 (unit uncertain)): 25.7%
- Relative % viable cells (primary Lmo2^Tg T-ALL; T-ALL 742, dose 5 (unit uncertain)): 22.9%
- Relative % viable cells (primary Lmo2^Tg T-ALL; T-ALL 742, dose 25 (unit uncertain)): 0.0%
- killing of LSCs from primary Lmo2^Tg T-ALL (primary Lmo2^Tg T-ALL; result in words): dose-dependent killing
